Experimental data reported in the NIST ThermoML archive (doi:10.1007/s10765-008-0503-0).

Conditions: Liquid; for viscosity: Vibrating wire viscometry; for mass density: vibrating wire

COCOC [dimethoxymethane]
Conditions	mass density [kg/m3]	viscosity [mPa·s]
243.15 K, 100 kPa	917.773	0.6298
243.15 K, 4400 kPa	921.19	0.651
243.15 K, 9420 kPa	924.889	0.6752
243.15 K, 14450 kPa	928.455	0.7003
243.15 K, 19440 kPa	931.885	0.7258
253.15 K, 100 kPa	905.693	0.5389
253.15 K, 4420 kPa	909.439	0.556
253.15 K, 9410 kPa	913.399	0.5769
253.15 K, 14450 kPa	917.473	0.5975
253.15 K, 19440 kPa	921.171	0.6191
263.15 K, 100 kPa	893.705	0.4697
263.15 K, 4440 kPa	897.611	0.4857
263.15 K, 9440 kPa	901.958	0.5039
263.15 K, 14470 kPa	906.179	0.5215
263.15 K, 19470 kPa	910.144	0.5406
273.15 K, 100 kPa	881.433	0.4145
273.15 K, 4440 kPa	885.755	0.4285
273.15 K, 9440 kPa	890.38	0.4446
273.15 K, 14480 kPa	894.826	0.4615
273.15 K, 19540 kPa	899.081	0.4783
283.15 K, 100 kPa	869.282	0.3685
283.15 K, 4450 kPa	873.902	0.3818
283.15 K, 9430 kPa	878.977	0.3964
283.15 K, 14490 kPa	883.736	0.4114
283.15 K, 19550 kPa	888.33	0.4265
293.15 K, 100 kPa	857.043	0.3303
293.15 K, 4410 kPa	862.006	0.342
293.15 K, 9460 kPa	867.484	0.3559
293.15 K, 14490 kPa	872.625	0.3692
293.15 K, 19550 kPa	877.53	0.3832
303.15 K, 100 kPa	844.252	0.2963
303.15 K, 4450 kPa	849.702	0.3076
303.15 K, 9450 kPa	855.591	0.3199
303.15 K, 14490 kPa	861.24	0.3323
303.15 K, 19550 kPa	866.565	0.345
313.15 K, 160 kPa	831.685	0.2682
313.15 K, 4440 kPa	837.579	0.2785
313.15 K, 9420 kPa	843.933	0.2905
313.15 K, 14450 kPa	849.923	0.3022
313.15 K, 19440 kPa	855.5	0.3137
323.15 K, 190 kPa	818.682	0.2436
323.15 K, 4390 kPa	824.99	0.2532
323.15 K, 9420 kPa	832.095	0.2644
323.15 K, 14460 kPa	838.549	0.2758
323.15 K, 19490 kPa	844.585	0.2866
333.15 K, 210 kPa	805.334	0.2202
333.15 K, 4390 kPa	812.279	0.229
333.15 K, 9410 kPa	819.852	0.2401
333.15 K, 14450 kPa	826.872	0.2504
333.15 K, 19450 kPa	833.322	0.261
343.15 K, 280 kPa	791.705	0.2009
343.15 K, 4430 kPa	799.263	0.2096
343.15 K, 9430 kPa	807.432	0.2203
343.15 K, 14460 kPa	815.084	0.2301
343.15 K, 19460 kPa	822.037	0.24
353.15 K, 360 kPa	777.688	0.1837
353.15 K, 4370 kPa	785.794	0.1922
353.15 K, 9400 kPa	794.895	0.2024
353.15 K, 14450 kPa	803.147	0.2123
353.15 K, 19430 kPa	810.634	0.2217
363.15 K, 430 kPa	763.12	0.1688
363.15 K, 4400 kPa	772.066	0.1767
363.15 K, 9410 kPa	782.127	0.1868
363.15 K, 14450 kPa	791.118	0.1963
363.15 K, 19460 kPa	799.153	0.2059
373.15 K, 550 kPa	748.032	0.1551
373.15 K, 4370 kPa	757.736	0.1628
373.15 K, 9400 kPa	768.901	0.1728
373.15 K, 14450 kPa	778.77	0.1822
373.15 K, 19480 kPa	787.494	0.1914

COCCOC [1,2-dimethoxyethane]
Conditions	mass density [kg/m3]	viscosity [mPa·s]
243.15 K, 100 kPa	919.667	0.8856
243.15 K, 4540 kPa	923.045	0.9166
243.15 K, 9560 kPa	926.586	0.9502
243.15 K, 14590 kPa	928.901	0.9855
243.15 K, 19470 kPa	931.879	1.017
253.15 K, 100 kPa	909.614	0.7464
253.15 K, 4550 kPa	912.595	0.7729
253.15 K, 9550 kPa	915.73	0.7995
253.15 K, 14450 kPa	917.844	0.8296
253.15 K, 19430 kPa	921.699	0.858
263.15 K, 100 kPa	899.206	0.642
263.15 K, 4560 kPa	901.757	0.6618
263.15 K, 9590 kPa	904.482	0.6849
263.15 K, 14590 kPa	908.179	0.7095
263.15 K, 19460 kPa	911.986	0.7337
273.15 K, 100 kPa	887.607	0.5585
273.15 K, 4560 kPa	890.738	0.5759
273.15 K, 9590 kPa	894.412	0.5961
273.15 K, 14550 kPa	898.792	0.6173
273.15 K, 19480 kPa	903.248	0.6392
283.15 K, 100 kPa	876.889	0.4904
283.15 K, 4550 kPa	880.455	0.5056
283.15 K, 9570 kPa	884.621	0.525
283.15 K, 14460 kPa	889.18	0.5458
283.15 K, 19450 kPa	892.89	0.5619
293.15 K, 100 kPa	866.528	0.4341
293.15 K, 4530 kPa	869.991	0.4492
293.15 K, 9560 kPa	875.037	0.4673
293.15 K, 14460 kPa	879.707	0.485
293.15 K, 19450 kPa	883.646	0.5011
303.15 K, 100 kPa	855.111	0.3896
303.15 K, 4540 kPa	859.667	0.4031
303.15 K, 9500 kPa	865.15	0.4197
303.15 K, 14440 kPa	869.454	0.4334
303.15 K, 19440 kPa	873.398	0.4494
313.15 K, 100 kPa	843.765	0.3512
313.15 K, 4540 kPa	848.633	0.3641
313.15 K, 9500 kPa	854.082	0.3784
313.15 K, 14440 kPa	858.578	0.3922
313.15 K, 19420 kPa	863.033	0.4055
323.15 K, 100 kPa	832.929	0.3189
323.15 K, 4560 kPa	838.334	0.3303
323.15 K, 9530 kPa	843.798	0.3433
323.15 K, 14450 kPa	848.464	0.3562
323.15 K, 19460 kPa	852.959	0.3693
333.15 K, 100 kPa	822.133	0.2903
333.15 K, 4550 kPa	827.195	0.3018
333.15 K, 9570 kPa	833.307	0.3129
333.15 K, 14460 kPa	837.525	0.3256
333.15 K, 19430 kPa	842.805	0.3372
343.15 K, 100 kPa	809.48	0.2653
343.15 K, 4540 kPa	815.487	0.2754
343.15 K, 9560 kPa	821.858	0.2868
343.15 K, 14440 kPa	827.359	0.2985
343.15 K, 19420 kPa	832.794	0.3093
353.15 K, 360 kPa	798.071	0.2437
353.15 K, 4560 kPa	803.982	0.2539
353.15 K, 9570 kPa	810.723	0.2642
353.15 K, 14440 kPa	817.205	0.2754
353.15 K, 19420 kPa	822.843	0.2858
363.15 K, 160 kPa	785.42	0.2233
363.15 K, 4560 kPa	792.463	0.233
363.15 K, 9570 kPa	799.914	0.2438
363.15 K, 14440 kPa	806.21	0.2557
363.15 K, 19420 kPa	812.462	0.2641
373.15 K, 200 kPa	772.627	0.2059
373.15 K, 4560 kPa	780.565	0.2157
373.15 K, 9580 kPa	788.637	0.2263
373.15 K, 14440 kPa	795.752	0.2355
373.15 K, 19420 kPa	802.7	0.2457
